Read-outs that look alike come from different tables or passages of the source.
Legend:
[1] = assay type: physicochemical; settings: for Viscosity, Initial: Epoxy Composition 3 (Table 8) with the named Lewis Acid Additive, before storage; for 7d (increase in viscosity in %) / Viscosity, 7d / 15 d (increase in viscosity in %) / Viscosity, 15 d: Epoxy Composition 3 with the named Lewis Acid Additive; for 7d (increase in viscosity in %) / Viscosity, 7d: stored at 50°C for 7 days; for 15 d (increase in viscosity in %) / Viscosity, 15 d: stored at 50°C for 15 days
Procedure: The A1 value gave the viscosity in Pascal seconds.
The epoxy resin was put in a Speedmixer cup (Hauschild Engineering), the thixotrope and dicyandiamide were added, and the raw materials mixed at 3500 s^-1 for 5 min. The accelerator and the additive were then weighed into the resin formulation and the mixture again speedmixed at 3500 s^-1 for 15 s. Formulations were stored at 50 °C. The complex viscosity was determined after 7 d and 15 d. Table 9. Viscosity of adhesive formulations stored at 50°C for 7 and 15 days in Pa*s.

[2] = cited from earlier work

## [O]=[Zn] [ZnO, Zinc oxide]
[1]
  Viscosity, Initial: 48 Pa*s
  7d (increase in viscosity in %): 233%
  Viscosity, 7d: 112 Pa*s
  15 d (increase in viscosity in %): 17235%
  Viscosity, 15 d: 8273 Pa*s
[2]; at 17.8°C
  solubility in water: solubility in water 0.0004% at 17.8 °C

## CCCCCCCCCCCCCCCCCC(=O)[O-].[Al+3].[OH-].[OH-] [AMS, Aluminum monostearate]
[1]
  Viscosity, Initial: 53 Pa*s
  7d (increase in viscosity in %): 245%
  Viscosity, 7d: 130 Pa*s
  15 d (increase in viscosity in %): 337%
  Viscosity, 15 d: 179 Pa*s

## [Cl-].[Cl-].[Zn+2] [ZnCl2, Zinc chloride]
[1]
  Viscosity, Initial: 54 Pa*s
  7d (increase in viscosity in %): 140%
  Viscosity, 7d: 76 Pa*s
  15 d (increase in viscosity in %): 292%
  Viscosity, 15 d: 158 Pa*s
[2]; at 25°C
  solubility in water: 432 g/100g
[2]; at 25°C, printed in brackets beside the g/100g value
  solubility in water: 4320 g/L
